Results from the CheMixHub viscosity set.

Test: xn = mol fraction of the nth substance listed

CC(=O)OC(C)C + Cc1ccccc1C
viscosity [mPa·s], 101 kPa
Conditions	x1 = 0.1037	x1 = 0.2009	x1 = 0.3016	x1 = 0.4027	x1 = 0.5048	x1 = 0.6019	x1 = 0.7013	x1 = 0.8041	x1 = 0.9437
303.15 K	0.669	0.645	0.62	0.595	0.571	0.55	0.527	0.504	0.472
313.15 K	0.596	0.573	0.552	0.53	0.509	0.489	0.47	0.45	0.424

CCCC(=O)O + Cc1ccccc1N
viscosity [mPa·s], 100 kPa
Conditions	x2 = 0.0971	x2 = 0.1896	x2 = 0.2605	x2 = 0.3617	x2 = 0.4825	x2 = 0.5911	x2 = 0.6776	x2 = 0.7516	x2 = 0.8641
303.15 K	1.59	1.78	1.92	2.12	2.35	2.55	2.71	2.84	3.03
308.15 K	1.42	1.58	1.7	1.87	2.07	2.24	2.37	2.48	2.64
313.15 K	1.26	1.4	1.51	1.66	1.83	1.98	2.1	2.19	2.33
318.15 K	1.1	1.23	1.32	1.45	1.6	1.73	1.83	1.91	2.02

CCCC(=O)O + ClC(Cl)(Cl)Cl
298.15 K, 101 kPa
Conditions	viscosity [mPa·s]
x1 = 0.08	0.911
x1 = 0.16	0.925
x1 = 0.24	0.945
x1 = 0.3	0.966
x1 = 0.54	1.079
x1 = 0.64	1.142
x1 = 0.72	1.201
x1 = 0.87	1.331

CCCCBr + ClC(Cl)(Cl)Cl
101 kPa
Conditions	viscosity [mPa·s]
295.95 K, x1 = 0.0935	0.874
295.95 K, x1 = 0.1213	0.8589
295.95 K, x1 = 0.171	0.8365
295.95 K, x1 = 0.2166	0.8163
295.95 K, x1 = 0.3376	0.7686
295.95 K, x1 = 0.5094	0.7155
295.95 K, x1 = 0.6766	0.6738
303.45 K, x1 = 0.0948	0.7853
303.45 K, x1 = 0.1316	0.7681
303.45 K, x1 = 0.1914	0.7427
303.45 K, x1 = 0.3229	0.698
303.45 K, x1 = 0.4875	0.6544
303.45 K, x1 = 0.7961	0.5884
313.25 K, x1 = 0.127	0.6844
313.25 K, x1 = 0.2061	0.6557
313.25 K, x1 = 0.2967	0.6297
313.25 K, x1 = 0.4576	0.5922
313.25 K, x1 = 0.6279	0.5598
313.25 K, x1 = 0.761	0.5382
313.25 K, x1 = 0.7961	0.5329

CCCCCCCBr + ClC(Cl)(Cl)Cl
viscosity [mPa·s], 101 kPa
Conditions	293.15 K	303.15 K	313.15 K	323.15 K
x1 = 0.123	1.015	0.878	0.769	0.677
x1 = 0.259	1.045	0.905	0.797	0.705
x1 = 0.412	1.09	0.945	0.832	0.738
x1 = 0.584	1.13	0.982	0.865	0.767

CCCCNCCCC + ClC(Cl)(Cl)Cl
298.15 K, 101.3 kPa
Conditions	viscosity [mPa·s]
x1 = 0.0922	0.898
x1 = 0.173	0.894
x1 = 0.3108	0.887
x1 = 0.4089	0.881
x1 = 0.5011	0.877
x1 = 0.5964	0.872
x1 = 0.7077	0.864
x1 = 0.7916	0.848
x1 = 0.9034	0.823

CCOC(=O)C(=O)OCC + ClC(Cl)(Cl)Cl
303.15 K, 101 kPa
Conditions	viscosity [mPa·s]
x1 = 0.0736	0.915
x1 = 0.1516	0.997
x1 = 0.2345	1.074
x1 = 0.3227	1.155
x1 = 0.4171	1.24
x1 = 0.5177	1.323
x1 = 0.6259	1.402
x1 = 0.7414	1.482
x1 = 0.8658	1.574

CCCCNCCCC + ClC(Cl)Cl
298.15 K, 101.3 kPa
Conditions	viscosity [mPa·s]
x1 = 0.102	0.639
x1 = 0.199	0.717
x1 = 0.3088	0.803
x1 = 0.3714	0.845
x1 = 0.4997	0.904
x1 = 0.6082	0.925
x1 = 0.698	0.907
x1 = 0.7719	0.89
x1 = 0.9007	0.852

CCOC(=O)C(=O)OCC + ClC(Cl)Cl
303.15 K, 101 kPa
Conditions	viscosity [mPa·s]
x1 = 0.0624	0.606
x1 = 0.1302	0.712
x1 = 0.2043	0.825
x1 = 0.2854	0.942
x1 = 0.3747	1.051
x1 = 0.473	1.157
x1 = 0.5831	1.28
x1 = 0.7057	1.399
x1 = 0.8436	1.539

CCCCNCCCC + ClCCl
298.15 K, 101.3 kPa
Conditions	viscosity [mPa·s]
x1 = 0.0995	0.494
x1 = 0.2125	0.55
x1 = 0.299	0.59
x1 = 0.3913	0.633
x1 = 0.4338	0.655
x1 = 0.6097	0.719
x1 = 0.6782	0.74
x1 = 0.807	0.768
x1 = 0.8865	0.787

C[N+](C)(C)C[C@H](O)CC(=O)[O-] + NC(N)=O
Conditions	viscosity [mPa·s]
298.15 K, 101.33 kPa, x2 = 0.7	553

CCCC(=O)O + NC=O
viscosity [mPa·s], 101 kPa
Conditions	x1 = 0.1043	x1 = 0.2044	x1 = 0.3013	x1 = 0.4031	x1 = 0.5027	x1 = 0.5996	x1 = 0.7011	x1 = 0.799	x1 = 0.857	x1 = 0.951
298.15 K	2.333	3.534	5.24	7.11	8.41	9.33	9.17	8.51	7.33	4.986
313.15 K	1.734	2.563	3.461	4.456	5.37	5.8	5.8	5.54	4.779	3.252
